Values joined by “and” are separate entries in the source; they are usually repeats but may differ in a detail not shown here. Identical values can stand only once.
Legend:
S. aureus = assay: Experimental mouse mastitis: intramammary antibiotic therapy 4 h after S. aureus inoculation, viable bacterial count per gland 18 h later; type: in vivo; settings: for 22 h bacterial counts (log10 cfu/gland) (18 h after treatment), x̄: group mean of five mice; for 22 h bacterial counts (log10 cfu/gland) (18 h after treatment): individual mice, intramammary, 4 h after infection
Experimental: Lactating mice of the Compton white strain were used 4-7 days after parturition. The mice were anaesthetised with ether and c.10^6 cfu S. aureus were inoculated via the teat into the fourth mammary gland on each side (R4 and L4) by the method described by Anderson [Zentralblatt fur Bakteriologie, Parasitenkunde, Infektionskrankheiten und Hygiene (Abteilung 1) Suppl. 5 783-790].
4 Hours later, the mice were divided into four groups and each group received inoculations into R4 and L4 of either cloxacillin, rifampicin, cloxacillin and rifampicin, or saline. After a further 18 hours, the mice were killed. From each mouse, L4 was removed and homogenised in a Griffith's tube with 5 ml sterile saline, and a total viable bacterial count was determined using ox blood agar plates pretreated with S-lactamase.
The log10 bacterial viable counts per gland found after antibiotic (or saline) therapy in each experiment were examined by analysis of variance. Differences between each pair of treatments were then compared for significance in Student's 't' tests, using the value of the.mean square for error obtained in the analysis of variance. Antibiotic residues. Each gland homogenate was also assayed for antibiotic content using an agar well diffusion method with penassay seed agar (Antibiotic medium 1, Difco Labs., Detroit) and Sarcina lutea as the test organism.
Similar treatment to that described above was carried out on mice, in which cloxacillin was replaced by flucloxacillin.
Antibiotics inoculated into mammary glands 4 h after infection at a dose of 1 mg cloxacillin or […] rifampici per gland, or both.

[1] = tested on: staphylococcal mastitis infections; assay: Bovine mastitis: intramammary infusion in lactating cows, clinical and bacteriological response at 4 and 7 days after treatment; type: in vivo, staphylococci
Experimental: Twenty one staphylococcal mastitis infections were treated as follows:
Ten infections treated with 3 x 12 hr infusions of a combination of 300 mg Rifampicin and 200 mg Cloxacillin.
Eleven infections treated with 3 x 12 hr infusions of 200 mg Cloxacillin.
The treatment was carried out by intramammary infusion in lactating cows, and the clinical and bacteriological response recorded at 4 and 7 days after treatment.

bovine mastitis = settings: recent reports (Poutrel 1978; Postle et al. 1979); cited from earlier work
[2] = lactating cows, 3 x 12 hr infusions of 300 mg Rifampicin and 200 mg Cloxacillin, or of 200 mg Cloxacillin

Cc1onc(-c2ccccc2Cl)c1C(=O)N[C@@H]1C(=O)N2[C@@H]1SC(C)(C)[C@@H]2C(=O)O [Cloxacillin, cloxacillin]
mean viable bacterial counts per gland, comparison between groups (S. aureus; M60 S. aureus, cloxacillin/rifampicin experiment, 1 mg cloxacillin or rifampici per gland, or both, 18 h after therapy, P<0.01): reduced bacterial counts to a significantly greater extend than rifampicin treatment
quarters with raised cell counts ([1]; four days after treatment, eight out of eleven raised before): five
quarters yielding staphylococci ([1]; four days after treatment, eleven infections treated): five
Proportion of quarters cured four days after treatment [1, 2]: 6 out of 11
Proportion of quarters cured seven days after treatment [1, 2]: 5 out of 11
quarters yielding staphylococci ([1]; seven days after treatment, combination ten quarters, cloxacillin alone eleven): six

CO[C@H]1/C=C/O[C@@]2(C)Oc3c(C)c(O)c4c(O)c(c(/C=N/N5CCN(C)CC5)c(O)c4c3C2=O)NC(=O)/C(C)=C\C=C\[C@H](C)[C@H](O)[C@@H](C)[C@@H](O)[C@@H](C)[C@H](OC(C)=O)[C@@H]1C [Rifampicin, rifampicin]
22 h bacterial counts (log10 cfu/gland) (18 h after treatment), x̄ (S. aureus; Rifampicin 25 µg per gland): 4.837 log10 cfu/gland
22 h bacterial counts (log10 cfu/gland) (18 h after treatment) (S. aureus; Rifampicin 25 µg per gland): 5.694 log10 cfu/gland and 4.581 log10 cfu/gland and 5.536 log10 cfu/gland and 4.258 log10 cfu/gland and 4.118 log10 cfu/gland

CO[C@H]1/C=C/O[C@@]2(C)Oc3c(C)c([O-])c4c(O)c(cc(O)c4c3C2=O)NC(=O)/C(C)=C\C=C\[C@H](C)[C@H](O)[C@@H](C)[C@@H](O)[C@@H](C)[C@H](OC(C)=O)[C@@H]1C.[Na+] [rifamycin-S.V.]
effectiveness of therapy in bovine mastitis (bovine mastitis): less effective than penicillin based preparations

Cc1onc(-c2c(F)cccc2Cl)c1C(=O)N[C@@H]1C(=O)N2[C@@H]1SC(C)(C)[C@@H]2C(=O)O [Fluclox, flucloxacillin]
22 h bacterial counts (log10 cfu/gland) (18 h after treatment), x̄ (S. aureus; Fluclox 1 mg per gland): 4.403 log10 cfu/gland
22 h bacterial counts (log10 cfu/gland) (18 h after treatment) (S. aureus; Fluclox 1 mg per gland): 4.243 log10 cfu/gland and 4.796 log10 cfu/gland and 4.158 log10 cfu/gland and 4.340 log10 cfu/gland and 4.477 log10 cfu/gland

— patent publication EP0058015A2, “Treatment of infections” (BEECHAM GROUP PLC, priority 1981, dated 1982)
